Molecules are shown by their SMILES.

The nature of series [1]: LNP particle size by dynamic light scattering (Zetasizer Nano ZS). It counts as physicochemical. The following applies: DMPE-PEG2000. Put shortly:
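eGFP mRNA in 50 mM citrate (from pH 3 buffer) was mixed microfluidically (Aq:EtOH 3:1, 12 mL/min) with ethanolic lipids, ionizable lipid/cholesterol/DSPC/polymer-conjugated lipid 50/38.5/10/1.5 mol %, 12.5 mM total, at N/P 3:1 or 6:1. Dynamic light scattering gave z-average diameter. Number-weighted distributions used refractive index 1.45.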

The nature of series [2]: mRNA encapsulation efficiency of LNP formulations (Quant-it Ribogreen assay with Triton-X100). It counts as physicochemical. Particulars: DMPE-PEG2000. Put shortly: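 LNPs of ionizable lipid/cholesterol/DSPC/polymer-lipid (50/38.5/10/1.5 mol%, 12.5 mM total lipid) formed by microfluidic mixing with eGFP mRNA in 50 mM citrate, pH 3, at 3:1 aqueous:ethanol and N/P 3:1 or 6:1. Encapsulation efficiency measured by RiboGreen with and without Triton-X100 disruption.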

For series [3], the system named is human broncho-epithelial cell line 16HBE. The series can be described thus: In vitro expression of eGFP in 16HBE cells (GFP ELISA). It counts as cell-based. Particulars: for eGFP in 16HBE: LNP formulation nos. 1 and 7 (N/P 3:1), 24 h, 125 ng mRNA per well, (standard error of the mean); for Ratio Lipid/MC3: ratio of eGFP expression in 16HBE to the MC3 formulation. On the procedure: In vitro expression of EGFP protein from LNP formulation nos. 1 and 7 described in Example 58 was tested in the human broncho-epithelial cell line 16HBE (Sigma-Aldrich SCC150. 16HBE cells were maintained in DMEM, low glucose with GlutaMAX™+pyruvate (Gibco 21885-025) supplemented with MEM Non-Essential Amino Acids (Gibco 11140035) and 10% Heat-Inactivated Fetal Calf Serum (HI-FCS). The cells were cultured at 37° C. in a humidified atmosphere with 5% CO2. The day prior to an experiment, cells were detached from culture flasks using TrypLE™ (Gibco 12604013) and seeded in cell culture treated 96-well plates (Greiner Bio-One #655090) at a density of 20.000 cells per well. At the day of an experiment, 1 hour before incubation with LNPs, medium was removed and replaced with 95 ul DMEM including 1% HI-FCS. After 1 hour of conditioning, 5 ul of LNPs in PBS was added and mixed by a Bravo robot, resulting in a final concentration of 50-125 ng mRNA per well. Cells were then incubated for 24 h at 37° C. in a humidified atmosphere with 5% CO2. Absolute quantification of EGFP protein was done using ELISA (GFP SimpleStep ELISA kit, Abcam #ab171581). After 24 h of incubation, cells were lysed by adding 100 ul of lysis buffer to each well (Lysis buffer included in the kit, or Abcam products #ab193970 and #ab193971) Cells were then lysed by a freeze-thaw cycle in lysis buffer. Lysates were measured in appropriate dilutions according to the kit manufacturer's instructions. Results are reported as number of EGFP molecules expressed per mRNA dosed, after 24 h, calculated from the values of 125 ng mRNA per well. Results are plotted as Mean+SEM from triplicate values.
The expression of eGFP in 16HBE cytosol proves the function of the used LNP composition of eGFP mRNA in promoting gene transfection and […]. The quantification of eGFP allows to compare different LNP compositions with the MC3-based lipid composition, used as a comparator, with regard to the induction of protein expression in 16HBE to obtain the ratio of lipid to MC3. In this application, the LNP compositions differ in their ionizable lipid (IL) component. […] (see FIG. 1).

In series [4] the test system is Female BALB/c mice. As to the kind of experiment: eGFP expression in the liver at 24 hours after intravenous administration of LNP formulations to mouse (ELISA). It counts as in vivo. The following applies: LNP N/P 3:1, DMPE-PEG2000. In outline: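 Mice (6-8 weeks, n=4/group) received a slow IV tail-vein bolus of LNP formulation at 0.3 mg/kg. Livers were harvested 24 hours post-dose and eGFP quantified by ELISA.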
For orientation: An ELISA detects its analyte on a solid surface through an enzyme-linked reagent.

[5] abbreviates: Table 1, number-average particle diameter, N/P ratio 3:1.
Where [6] appears, read: Table 1, z-average particle diameter, N/P ratio 3:1.
[7] abbreviates: Table 1, LNP with eGFP mRNA, N/P ratio 3:1.

Take `CCCCCC(CCCCC)CCOC(=O)CCCCCCCC(CCCCCCCC(=O)OCCC(CCCCC)CCCCC)NC1CC2(COC2)C1` [Compound 1, Bis(3-pentyloctyl) 9-((2-oxaspiro[3.3]heptan-6-yl)amino)heptadecanedioate]: the “<d>N (nm)” value in series [1] (setting [5]) turned out to be 68 nm; in series [1] (Table 1, number-average particle diameter, N/P ratio 6:1), 57 nm. Besides, the “<d>Z (nm)” value in series [1] (setting [6]) worked out at 84 nm; in series [1] (Table 1, z-average particle diameter, N/P ratio 6:1) it was 74 nm. Further, the “% EE” value came out at 97% in series [2] (setting [7]) and 94% in series [2] (Table 1, LNP with eGFP mRNA, N/P ratio 6:1). Also, in series [3], the “eGFP in 16HBE” value was 0.044 (±0.004) number of protein molecules per number of dosed mRNA molecules. Further, in series [3], the “Ratio Lipid/MC3” value came out at 1.9.
For the compound `CCCCC/C=C\C/C=C\CCCCCCCCC(CCCCCCCC/C=C\C/C=C\CCCCC)OC(=O)CCCN(C)C` [MC3, [(10Z,13Z)-1-[(9Z,12Z)-octadeca-9,12-dienyl]nonadeca-10,13-dienyl] 4-(dimethylamino)butanoate, reference compound], the “<d>N (nm)” value in series [1] (setting [5]) is 72 nm; in series [1] (Table 3, N/P ratio 3:1), 63 nm; in series [1] (Table 4, N/P ratio 3:1), 71 nm; in series [1] (Table 5, N/P ratio 3:1), 66 nm; in series [1] (Table 6, N/P ratio 3:1), 61 nm. In addition, the “<d>Z (nm)” value was 86 nm in series [1] (setting [6]); 79 nm in series [1] (Table 3, N/P ratio 3:1); 88 nm in series [1] (Table 4, N/P ratio 3:1); 82 nm in series [1] (Table 5, N/P ratio 3:1); 74 nm in series [1] (Table 6, N/P ratio 3:1). Besides, the “% EE” value in series [2] (setting [7]) was determined as 99%; in series [2] (Table 3, N/P ratio 3:1), 98%; in series [2] (Table 4, N/P ratio 3:1), 98%; in series [2] (Table 5, N/P ratio 3:1) it was 98%; in series [2] (Table 6, N/P ratio 3:1), 98%. In series [3], the “eGFP in 16HBE” value is 0.023 (±0.001) number of protein molecules per number of dosed mRNA molecules. Also, the “Ratio Lipid/MC3” value in series [3] is 1. In addition, the “Liver eGFP protein (ng/g tissue)” value in series [4] (Table 3, 0.3 mg/kg) stood at 3091.5 ng/g tissue; in series [4] (Table 4, 0.3 mg/kg), 916.4 ng/g tissue; in series [4] (Table 5, 0.3 mg/kg), 1114.4 ng/g tissue; in series [4] (Table 6, 0.3 mg/kg), 3802.0 ng/g tissue.
Turning to `CCCCCCCCC(CC)OC(=O)CCCCCCCC(CCCCCCCC(=O)OC(CCCCCCCC)CCCCCCCC)NCC1COC1` (stereo not shown) [Compound 41, 1-(heptadecan-9-yl) 17-(undecan-3-yl) 9-((oxetan-3-ylmethyl)amino)heptadecanedioate], in series [1] (Table 5, N/P ratio 3:1), the “<d>N (nm)” value is 54 nm and the “<d>Z (nm)” value came to 69 nm. In series [2] (Table 5, N/P ratio 3:1), the “% EE” value came to 98%. Besides, the “Liver eGFP protein (ng/g tissue)” value in series [4] (Table 5, 0.3 mg/kg) was determined as 7390.2 ng/g tissue.
`CCCCCCCCCOC(=O)CCCCCC(CCCCCC(=O)OC(CCCCCCCC)CCCCCCCC)NC1CC2(COC2)C1` (stereo not shown) [Compound 19, 1-(heptadecan-9-yl) 13-nonyl 7-((2-oxaspiro[3.3]heptan-6-yl)amino)tridecanedioate]: in series [1] (Table 4, N/P ratio 3:1), the “<d>N (nm)” value is given as 57 nm and the “<d>Z (nm)” value was determined as 75 nm. In addition, in series [2] (Table 4, N/P ratio 3:1), the “% EE” value is 92%. Besides, the “Liver eGFP protein (ng/g tissue)” value in series [4] (Table 4, 0.3 mg/kg) is 9938.1 ng/g tissue.
